From PubChem BioAssay (NCI)
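These data come from cells grown in 96-well plates and exposed to compound for 48 hours at five concentrations. GI50: concentration for 50% inhibition of growth. TGI: total growth inhibition.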

Assays:
Experiment in all cases: DTP human tumour cell line panel, 48 h
786-0 renal = tested on: 786-0 renal
A498 renal = tested on: A498 renal
BT-549 breast = tested on: BT-549 breast
EKVX NSCLC = tested on: EKVX NSCLC
HCC-2998 colon = tested on: HCC-2998 colon
HCT-116 colon = tested on: HCT-116 colon
HCT-15 colon = tested on: HCT-15 colon
HS 578T breast = tested on: HS 578T breast
HT29 colon = tested on: HT29 colon
M14 melanoma = tested on: M14 melanoma
MDA-MB-231 breast = tested on: MDA-MB-231 breast
NCI-H23 lung = tested on: NCI-H23 lung
NCI/ADR-RES ovarian = tested on: NCI/ADR-RES ovarian
OVCAR-3 ovarian = tested on: OVCAR-3 ovarian
OVCAR-4 ovarian = tested on: OVCAR-4 ovarian
OVCAR-5 ovarian = tested on: OVCAR-5 ovarian
PC-3 prostate = tested on: PC-3 prostate
SF-295 CNS = tested on: SF-295 CNS
SK-MEL-2 melanoma = tested on: SK-MEL-2 melanoma
SK-MEL-28 melanoma = tested on: SK-MEL-28 melanoma
SK-MEL-5 melanoma = tested on: SK-MEL-5 melanoma
SK-OV-3 ovarian = tested on: SK-OV-3 ovarian
TK-10 renal = tested on: TK-10 renal
UACC-257 melanoma = tested on: UACC-257 melanoma
UO-31 renal = tested on: UO-31 renal
A549 NSCLC = tested on: A549 NSCLC
ACHN renal = tested on: ACHN renal
CCRF-CEM leukemia = tested on: CCRF-CEM leukemia
COLO 205 colon = tested on: COLO 205 colon
DU-145 prostate = tested on: DU-145 prostate
HOP-62 NSCLC = tested on: HOP-62 NSCLC
HOP-92 NSCLC = tested on: HOP-92 NSCLC
IGROV1 ovarian = tested on: IGROV1 ovarian
K-562 leukemia = tested on: K-562 leukemia
KM12 colon = tested on: KM12 colon
LOX IMVI melanoma = tested on: LOX IMVI melanoma
MALME-3M melanoma = tested on: MALME-3M melanoma
MOLT-4 leukemia = tested on: MOLT-4 leukemia
NCI-H226 lung = tested on: NCI-H226 lung
NCI-H460 lung = tested on: NCI-H460 lung
OVCAR-8 ovarian = tested on: OVCAR-8 ovarian
RPMI-8226 leukemia = tested on: RPMI-8226 leukemia
RXF 393 renal = tested on: RXF 393 renal
SF-268 CNS = tested on: SF-268 CNS
SF-539 CNS = tested on: SF-539 CNS
SN12C renal = tested on: SN12C renal
SNB-19 CNS = tested on: SNB-19 CNS
SR leukemia = tested on: SR leukemia
SW-620 colon = tested on: SW-620 colon
U251 CNS = tested on: U251 CNS

## O=C1C(=O)c2ccccc2C(O)=C1Cc1ccccc1
786-0 renal
  TGI: > 100 µM
A498 renal
  TGI: > 100 µM
BT-549 breast
  TGI: > 100 µM
EKVX NSCLC
  TGI: > 100 µM
HCC-2998 colon
  TGI: > 100 µM
HCT-116 colon
  TGI: > 100 µM
HCT-15 colon
  TGI: > 100 µM
HS 578T breast
  TGI: > 100 µM
HT29 colon
  TGI: > 100 µM
M14 melanoma
  TGI: > 100 µM
MDA-MB-231 breast
  TGI: > 100 µM
NCI-H23 lung
  TGI: > 100 µM
NCI/ADR-RES ovarian
  TGI: > 100 µM
OVCAR-3 ovarian
  TGI: 79.7 µM
OVCAR-4 ovarian
  TGI: > 100 µM
OVCAR-5 ovarian
  TGI: > 100 µM
PC-3 prostate
  TGI: > 100 µM
SF-295 CNS
  TGI: > 100 µM
SK-MEL-2 melanoma
  TGI: > 100 µM
SK-MEL-28 melanoma
  TGI: > 100 µM
SK-MEL-5 melanoma
  TGI: 39 µM
SK-OV-3 ovarian
  TGI: > 100 µM
TK-10 renal
  TGI: > 100 µM
UACC-257 melanoma
  TGI: > 100 µM
UO-31 renal
  TGI: > 100 µM

## COc1cc(C(C)c2ccc3c(ccn3C)c2)cc(OC)c1OC (centres undefined)
786-0 renal
  GI50: 0.0288 µM
  TGI: 26.7 µM
A549 NSCLC
  GI50: 0.0233 µM
  TGI: > 100 µM
ACHN renal
  GI50: 0.0172 µM
  TGI: > 100 µM
BT-549 breast
  GI50: 0.0231 µM
  TGI: 19.3 µM
CCRF-CEM leukemia
  GI50: 0.0307 µM
  TGI: > 100 µM
COLO 205 colon
  GI50: < 0.01 µM
  TGI: 0.0461 µM
DU-145 prostate
  GI50: 0.0343 µM
  TGI: > 100 µM
EKVX NSCLC
  GI50: 0.0674 µM
  TGI: > 100 µM
HCC-2998 colon
  GI50: 0.0276 µM
  TGI: > 100 µM
HCT-15 colon
  GI50: 0.0106 µM
  TGI: > 100 µM
HOP-62 NSCLC
  GI50: 0.0385 µM
  TGI: > 100 µM
HOP-92 NSCLC
  GI50: 0.0251 µM
  TGI: 45.4 µM
HS 578T breast
  GI50: 0.0148 µM
  TGI: > 100 µM
HT29 colon
  GI50: < 0.01 µM
  TGI: 14.2 µM
IGROV1 ovarian
  GI50: 0.0291 µM
  TGI: > 100 µM
K-562 leukemia
  GI50: < 0.01 µM
  TGI: > 100 µM
KM12 colon
  GI50: < 0.01 µM
  TGI: 60.2 µM
LOX IMVI melanoma
  GI50: 0.0207 µM
  TGI: > 100 µM
M14 melanoma
  GI50: < 0.01 µM
  TGI: 22 µM
MALME-3M melanoma
  GI50: 11.6 µM
  TGI: 63.3 µM
MDA-MB-231 breast
  GI50: 0.0551 µM
  TGI: 34.8 µM
MOLT-4 leukemia
  GI50: 0.0449 µM
  TGI: > 100 µM
NCI-H226 lung
  GI50: 10.9 µM
  TGI: 57.3 µM
NCI-H23 lung
  GI50: 0.0268 µM
  TGI: > 100 µM
NCI-H460 lung
  GI50: 0.0117 µM
  TGI: > 100 µM
NCI/ADR-RES ovarian
  GI50: < 0.01 µM
  TGI: > 100 µM
OVCAR-4 ovarian
  GI50: 0.414 µM
  TGI: > 100 µM
OVCAR-5 ovarian
  GI50: 0.0559 µM
  TGI: > 100 µM
OVCAR-8 ovarian
  GI50: 0.0363 µM
  TGI: 38.5 µM
PC-3 prostate
  GI50: 0.0171 µM
  TGI: > 100 µM
RPMI-8226 leukemia
  GI50: 0.0362 µM
  TGI: 22.6 µM
RXF 393 renal
  GI50: < 0.01 µM
  TGI: > 100 µM
SF-268 CNS
  GI50: 0.0393 µM
  TGI: > 100 µM
SF-295 CNS
  GI50: < 0.01 µM
  TGI: 32.5 µM
SF-539 CNS
  GI50: < 0.01 µM
  TGI: 15.2 µM
SK-MEL-2 melanoma
  GI50: 0.0984 µM
  TGI: 95.8 µM
SK-MEL-28 melanoma
  GI50: 8.09 µM
  TGI: > 100 µM
SK-MEL-5 melanoma
  GI50: < 0.01 µM
  TGI: 0.391 µM
SK-OV-3 ovarian
  GI50: < 0.01 µM
  TGI: 60.7 µM
SN12C renal
  GI50: 0.0671 µM
  TGI: > 100 µM
SNB-19 CNS
  GI50: 0.0405 µM
  TGI: > 100 µM
SR leukemia
  GI50: < 0.01 µM
  TGI: > 100 µM
SW-620 colon
  GI50: < 0.01 µM
  TGI: > 100 µM
TK-10 renal
  GI50: 16.5 µM
  TGI: 92.6 µM
U251 CNS
  GI50: < 0.01 µM
  TGI: 39 µM
UACC-257 melanoma
  GI50: 19.4 µM
  TGI: 77.6 µM
UO-31 renal
  GI50: 0.189 µM
  TGI: 62.2 µM
